Assay results from patent US20260207734A1 (priority 2021, published 2026).
Like-named read-outs stand apart in the source and are kept apart here.

Legend:
[1] = system: CD8+ T cells of HLA-A02:01-positive human donors; assay type: cell-based
[2] = system: peripheral CD8+ T cells; set-up: species or system human; conditions: in vivo
[3] = system: MHC (HLA-I and HLA-II alleles); set-up: key: +: previously assayed and confirmed as HLA-A02:01 binders in ViPR; conditions: cited from earlier work
[4] = PBMCs from three HLA-A02:01-positive human donors, pMHC multimer positive CD8+ T cells

MHC (HLA-I and HLA-II alleles), sequence (P61769 21-119): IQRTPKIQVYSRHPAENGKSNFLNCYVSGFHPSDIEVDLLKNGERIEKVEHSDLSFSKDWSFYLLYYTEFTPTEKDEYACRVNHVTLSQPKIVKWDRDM

## FGDDTVIEV
[1]; [4]
  No. Donors with pMHC specific T tells: 3

## GLTVLPPLL
[1]; [4]
  No. Donors with pMHC specific T tells: 1

## QPTESIVRF
[2]
  multimer+ of CD8+: 0.17

## ILLNKHIDA
[3]
  Confirmed in VIPR: +

## FLLPSLATV
[1]; [4]
  No. Donors with pMHC specific T tells: 2

## YLGTGPEAGL
[1]
  No. Donors with pMHC specific T tells: 2

## KLNDLCFTNV
[1]; [4]
  No. Donors with pMHC specific T tells: 2

## FLFLTWICL
[1]; [4]
  No. Donors with pMHC specific T tells: 2

## LLLDRLNQL
[3]
  Confirmed in VIPR: +
[1]; [4]
  No. Donors with pMHC specific T tells: 1

## NLNESLIDL
[3]
  Confirmed in VIPR: +

## YLQPRTFLL
[2]
  multimer+ of CD8+: 3.09

## QYIKWPWYI
[2]
  multimer+ of CD8+: 1.27

## KLDDKDPNF
[1]
  No. Donors with pMHC specific T tells: 2
